# Experimental data reported in PMC12000319, “Proton conductance by human uncoupling protein 1 is inhibited by purine and pyrimidine nucleotides” (The EMBO Journal, 2025).
# Several values for one entry are separate records, joined by “and”; a condition that tells them apart may be missing. Equal values may be shown once. Read-outs that look alike come from different tables or passages of the source.
# Key:
# UCP1 [1] = tested on: UCP1; set-up: method as in Heaton and Nicholls, 1977; Divakaruni et al, 2012; settings: whole mitochondria; ref Heaton and Nicholls, 1977; Divakaruni et al, 2012; cited from earlier work
# UCP1 [2] = molecular target: T1, UCP1 (Homo sapiens, UniProt P25874); assay: Differential scanning fluorimetry (nanoDSF) thermal stability shift assay; assay type: binding; settings: for ΔTm at 1000 µM: read-out: thermal shift (ΔTm)
# T1 construct: His8 (N, cleaved yes); Factor Xa protease cleavage site (N, cleaved yes); made in house; host or cells: Saccharomyces cerevisiae strain W303.1B
# T1 sequence (P25874 1-307): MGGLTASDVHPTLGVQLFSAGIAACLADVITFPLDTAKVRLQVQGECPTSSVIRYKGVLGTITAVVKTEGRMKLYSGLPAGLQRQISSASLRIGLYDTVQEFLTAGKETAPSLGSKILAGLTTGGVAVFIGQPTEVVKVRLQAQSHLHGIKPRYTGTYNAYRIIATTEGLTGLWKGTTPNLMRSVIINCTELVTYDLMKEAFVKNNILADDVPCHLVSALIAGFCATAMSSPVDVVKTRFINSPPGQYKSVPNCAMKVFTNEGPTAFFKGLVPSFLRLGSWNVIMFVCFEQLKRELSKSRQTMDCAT
# UCP1 [3] = molecular target: T1, UCP1; assay: Isothermal titration calorimetry of nucleotide binding; set-up: isotherm data point (enthalpy change per injection): unit not given here; settings: for isotherm data point (enthalpy change per injection): representative isotherm;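 as to all read-outs here: purified human UCP1 in cacodylate buffer with lauryl maltose neopentyl glycol and cardiolipin, titrated with nucleotides, isotherms fitted by one-site model yielding ΔH, Kd and stoichiometry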
# [4] = ITC, pH 6.0, 20 °C, mean ± standard deviation of three biological repeats (Fig. 2A-E)
# [5] = ITC, single biological repeats (source data Fig. 2F)
compound,measurement,setting,value
Nc1ccn([C@@H]2O[C@H](COP(=O)(O)OP(=O)(O)O)[C@@H](O)[C@H]2O)c(=O)n1 [CDP],competition with GDP binding,UCP1 [1],unable to displace the binding of GDP
"Nc1nc2c(ncn2[C@@H]2O[C@H](COP(=O)(O)OP(=O)(O)OP(=O)(O)O)[C@@H](O)[C@H]2O)c(=O)[nH]1 [GTP, guanosine triphosphate]",temperature shift (ΔTm),"UCP1 [2]; 1 mM nucleotide, pH 6.0, detergent-solubilised UCP1, mean of three biological repeats",16.2 °C
same,ΔTm at 1000 µM,"UCP1 [2]; pH 6, 1 mM nucleotide, pH 6.0, single repeats (source data Fig. 1D)",16 °C
same,ΔTm at 1000 µM,"UCP1 [2]; pH 6.5, 1 mM nucleotide, pH 6.5, single repeats (source data Fig. 1D)",12 °C
same,ΔTm at 1000 µM,"UCP1 [2]; pH 7, 1 mM nucleotide, pH 7.0, single repeats (source data Fig. 1D)",7.8 °C
same,ΔTm at 1000 µM,"UCP1 [2]; pH 7.5, 1 mM nucleotide, pH 7.5, single repeats (source data Fig. 1D)",3.6 °C
same,binding affinity to UCP1 (in words),UCP1 [3]; ITC,intermediary affinities
same,Kd,UCP1 [3]; [4],3.77 ± 0.12 µM
same,Kd,UCP1 [3]; [5],3.68 µM and 3.9 µM and 3.73 µM
same,isotherm data point (enthalpy change per injection),"UCP1 [3]; Molar ratio (Nucleotide/UCP) 0.120417, pH 6.0, 20 °C",-20.3045
same,isotherm data point (enthalpy change per injection),"UCP1 [3]; Molar ratio (Nucleotide/UCP) 0.181226, pH 6.0, 20 °C",-19.4276
same,isotherm data point (enthalpy change per injection),"UCP1 [3]; Molar ratio (Nucleotide/UCP) 0.242439, pH 6.0, 20 °C",-18.5029
same,isotherm data point (enthalpy change per injection),"UCP1 [3]; Molar ratio (Nucleotide/UCP) 0.304059, pH 6.0, 20 °C",-18.707
same,isotherm data point (enthalpy change per injection),"UCP1 [3]; Molar ratio (Nucleotide/UCP) 0.366087, pH 6.0, 20 °C",-18.3445
same,isotherm data point (enthalpy change per injection),"UCP1 [3]; Molar ratio (Nucleotide/UCP) 0.428528, pH 6.0, 20 °C",-17.3071
same,isotherm data point (enthalpy change per injection),"UCP1 [3]; Molar ratio (Nucleotide/UCP) 0.491383, pH 6.0, 20 °C",-16.412
same,isotherm data point (enthalpy change per injection),"UCP1 [3]; Molar ratio (Nucleotide/UCP) 0.554656, pH 6.0, 20 °C",-17.0687
same,isotherm data point (enthalpy change per injection),"UCP1 [3]; Molar ratio (Nucleotide/UCP) 0.618348, pH 6.0, 20 °C",-15.1625
same,isotherm data point (enthalpy change per injection),"UCP1 [3]; Molar ratio (Nucleotide/UCP) 0.682464, pH 6.0, 20 °C",-14.4377
same,isotherm data point (enthalpy change per injection),"UCP1 [3]; Molar ratio (Nucleotide/UCP) 0.747006, pH 6.0, 20 °C",-12.3158
same,isotherm data point (enthalpy change per injection),"UCP1 [3]; Molar ratio (Nucleotide/UCP) 0.811976, pH 6.0, 20 °C",-11.9274
same,isotherm data point (enthalpy change per injection),"UCP1 [3]; Molar ratio (Nucleotide/UCP) 0.877378, pH 6.0, 20 °C",-11.0392
same,isotherm data point (enthalpy change per injection),"UCP1 [3]; Molar ratio (Nucleotide/UCP) 0.943214, pH 6.0, 20 °C",-8.777
same,isotherm data point (enthalpy change per injection),"UCP1 [3]; Molar ratio (Nucleotide/UCP) 1.00949, pH 6.0, 20 °C",-7.389
same,isotherm data point (enthalpy change per injection),"UCP1 [3]; Molar ratio (Nucleotide/UCP) 1.0762, pH 6.0, 20 °C",-6.878
same,isotherm data point (enthalpy change per injection),"UCP1 [3]; Molar ratio (Nucleotide/UCP) 1.14336, pH 6.0, 20 °C",-5.2039
same,isotherm data point (enthalpy change per injection),"UCP1 [3]; Molar ratio (Nucleotide/UCP) 1.21096, pH 6.0, 20 °C",-4.2804
same,isotherm data point (enthalpy change per injection),"UCP1 [3]; Molar ratio (Nucleotide/UCP) 1.27901, pH 6.0, 20 °C",-2.298
same,isotherm data point (enthalpy change per injection),"UCP1 [3]; Molar ratio (Nucleotide/UCP) 1.34751, pH 6.0, 20 °C",-2.606
same,isotherm data point (enthalpy change per injection),"UCP1 [3]; Molar ratio (Nucleotide/UCP) 1.41647, pH 6.0, 20 °C",-2.5907
same,isotherm data point (enthalpy change per injection),"UCP1 [3]; Molar ratio (Nucleotide/UCP) 1.48589, pH 6.0, 20 °C",-0.9936
same,isotherm data point (enthalpy change per injection),"UCP1 [3]; Molar ratio (Nucleotide/UCP) 1.55577, pH 6.0, 20 °C",-1.473
same,isotherm data point (enthalpy change per injection),"UCP1 [3]; Molar ratio (Nucleotide/UCP) 1.62611, pH 6.0, 20 °C",-0.9907
same,isotherm data point (enthalpy change per injection),"UCP1 [3]; Molar ratio (Nucleotide/UCP) 1.69692, pH 6.0, 20 °C",-0.3592
same,isotherm data point (enthalpy change per injection),"UCP1 [3]; Molar ratio (Nucleotide/UCP) 1.76819, pH 6.0, 20 °C",-0.2978
same,isotherm data point (enthalpy change per injection),"UCP1 [3]; Molar ratio (Nucleotide/UCP) 1.83995, pH 6.0, 20 °C",0.5154
same,isotherm data point (enthalpy change per injection),"UCP1 [3]; Molar ratio (Nucleotide/UCP) 1.91217, pH 6.0, 20 °C",0.06373
same,isotherm data point (enthalpy change per injection),"UCP1 [3]; Molar ratio (Nucleotide/UCP) 1.98488, pH 6.0, 20 °C",0.2135
"O=c1ccn([C@@H]2O[C@H](COP(=O)(O)OP(=O)(O)OP(=O)(O)O)[C@@H](O)[C@H]2O)c(=O)[nH]1 [UTP, uridine triphosphate]",Kd,UCP1 [3]; [4],2.86 ± 0.49 µM
same,Kd,UCP1 [3]; [5],3.37 µM and 2.82 µM and 2.4 µM
